Assay results as given in PubChem BioAssay (NCI).
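Growth conditions: 96-well plates. Treatment: test compound, 48 hours, 5 concentrations. Analysis: linear interpolation between bracketing concentrations; unreached endpoints set to highest concentration. GI50 = concentration required for 50% inhibition of growth. Definition used: TGI = concentration required for complete inhibition of growth.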

How the values were obtained:
Experiment in all cases: DTP human tumour cell line panel, 48 h; in the data active = GI50 below about 0.43 µM; inactive = the rest
[1] = system: NCI/ADR-RES ovarian
[2] = system: SR leukemia
[3] = system: DU-145 prostate
[4] = system: 786-0 renal
[5] = system: MALME-3M melanoma
[6] = system: CCRF-CEM leukemia
[7] = system: A549 NSCLC
[8] = system: OVCAR-4 ovarian
[9] = system: SK-MEL-2 melanoma
[10] = system: SNB-19 CNS
[11] = system: NCI-H522 lung
[12] = system: T-47D breast
[13] = system: UACC-62 melanoma
[14] = system: TK-10 renal
[15] = system: LOX IMVI melanoma
[16] = system: OVCAR-3 ovarian
[17] = system: SF-539 CNS
[18] = system: SF-268 CNS
[19] = system: SF-295 CNS
[20] = system: HOP-92 NSCLC
[21] = system: SW-620 colon
[22] = system: SN12C renal
[23] = system: A498 renal
[24] = system: OVCAR-5 ovarian
[25] = system: HT29 colon
[26] = system: NCI-H23 lung
[27] = system: MDA-MB-435
[28] = system: RXF 393 renal
[29] = system: IGROV1 ovarian
[30] = system: HCT-15 colon
[31] = system: KM12 colon
[32] = system: NCI-H460 lung
[33] = system: HL-60(TB) leukemia
[34] = system: SK-MEL-28 melanoma
[35] = system: BT-549 breast
[36] = system: HOP-62 NSCLC
[37] = system: U251 CNS
[38] = system: HCC-2998 colon
[39] = system: UACC-257 melanoma
[40] = system: HS 578T breast
[41] = system: SK-MEL-5 melanoma
[42] = system: CAKI-1 renal
[43] = system: MOLT-4 leukemia
[44] = system: ACHN renal
[45] = system: COLO 205 colon
[46] = system: SNB-75 CNS
[47] = system: SK-OV-3 ovarian
[48] = system: M14 melanoma
[49] = system: UO-31 renal
[50] = system: OVCAR-8 ovarian
[51] = system: PC-3 prostate
[52] = system: MDA-MB-231 breast
[53] = system: NCI-H226 lung
[54] = system: K-562 leukemia
[55] = system: HCT-116 colon
[56] = system: RPMI-8226 leukemia
[57] = system: MCF7 breast
[58] = system: EKVX NSCLC

C[C@H](Cn1ncnn1)Nc1ncc2cc(Oc3ccc(F)cc3F)c(=O)n(C)c2n1
> 25000 nM: TGI [1] | TGI [2] | TGI [3] | TGI [4] | TGI [5] | TGI [6] | TGI [7] | TGI [8] | TGI [9] | TGI [10] | TGI [11] | TGI [12] | TGI [13] | TGI [14] | TGI [15] | TGI [16] | TGI [17] | TGI [18] | TGI [19] | TGI [20] | TGI [21] | TGI [22] | TGI [23] | TGI [24] | TGI [25] | TGI [26] | TGI [27] | TGI [28] | TGI [29] | TGI [30] | TGI [31] | TGI [32] | TGI [33] | TGI [34] | TGI [35] | TGI [36] | TGI [37] | TGI [38] | TGI [39] | TGI [40] | TGI [41] | TGI [42] | TGI [43] | TGI [44] | TGI [45] | TGI [46] | TGI [47] | TGI [48] | TGI [49] | TGI [50] | TGI [51] | TGI [52] | TGI [53] | TGI [54] | TGI [55] | TGI [56] | TGI [57]
inactive: GI50 [1] > 25000 nM | GI50 [2] > 25000 nM | GI50 [3] > 25000 nM | GI50 [4] > 25000 nM | GI50 [5] > 25000 nM | GI50 [6] > 25000 nM | GI50 [7] > 25000 nM | GI50 [8] > 25000 nM | GI50 [9] > 25000 nM | GI50 [10] > 25000 nM | GI50 [11] > 25000 nM | GI50 [12] > 25000 nM | GI50 [13] > 25000 nM | GI50 [14] > 25000 nM | GI50 [15] > 25000 nM | GI50 [16] > 25000 nM | GI50 [17] > 25000 nM | GI50 [18] > 25000 nM | GI50 [19] > 25000 nM | GI50 [20] 3960 nM | GI50 [21] > 25000 nM | GI50 [22] > 25000 nM | GI50 [23] > 25000 nM | GI50 [24] > 25000 nM | GI50 [25] > 25000 nM | GI50 [26] > 25000 nM | GI50 [27] > 25000 nM | GI50 [28] > 25000 nM | GI50 [29] > 25000 nM | GI50 [30] > 25000 nM | GI50 [31] > 25000 nM | GI50 [32] > 25000 nM | GI50 [33] > 25000 nM | GI50 [34] > 25000 nM | GI50 [35] > 25000 nM | GI50 [36] > 25000 nM | GI50 [37] > 25000 nM | GI50 [38] > 25000 nM | GI50 [39] > 25000 nM | GI50 [40] > 25000 nM | GI50 [41] > 25000 nM | GI50 [42] > 25000 nM | GI50 [43] > 25000 nM | GI50 [44] > 25000 nM | GI50 [45] > 25000 nM | GI50 [46] > 25000 nM | GI50 [47] > 25000 nM | GI50 [48] > 25000 nM | GI50 [49] > 25000 nM | GI50 [50] > 25000 nM | GI50 [51] > 25000 nM | GI50 [52] > 25000 nM | GI50 [53] > 25000 nM | GI50 [54] > 25000 nM | GI50 [55] > 25000 nM | GI50 [56] > 25000 nM | GI50 [57] > 25000 nM

COCCOCCOCc1n(Cc2ccc3ccccc3n2)c2ccccc2[n+]1Cc1ccc2ccccc2c1
10600 nM: TGI [7]
2040 nM: TGI [38]
1240 nM: TGI [15]
2290 nM: TGI [51]
12600 nM: TGI [3]
1400 nM: TGI [17]
1430 nM: TGI [25]
13600 nM: TGI [30]
2580 nM: TGI [19]
1260 nM: TGI [37]
2060 nM: TGI [55]
> 100000 nM: TGI [1]
476 nM: TGI [33]
3660 nM: TGI [40]
1630 nM: TGI [31]
1880 nM: TGI [34]
inactive: GI50 [1] 23400 nM | GI50 [3] 593 nM | GI50 [58] 1270 nM | GI50 [4] 1530 nM | GI50 [6] 532 nM | GI50 [7] 748 nM | GI50 [10] 441 nM | GI50 [14] 1040 nM | GI50 [18] 464 nM | GI50 [19] 804 nM | GI50 [21] 769 nM | GI50 [23] 627 nM | GI50 [24] 557 nM | GI50 [28] 1680 nM | GI50 [30] 3480 nM | GI50 [34] 484 nM | GI50 [36] 468 nM | GI50 [38] 468 nM | GI50 [40] 964 nM | GI50 [43] 470 nM | GI50 [44] 2040 nM | GI50 [47] 501 nM | GI50 [49] 2290 nM | GI50 [50] 498 nM | GI50 [53] 875 nM
936 nM: TGI [11]
2080 nM: TGI [12]
1560 nM: TGI [9] | TGI [32]
1160 nM: TGI [41]
5370 nM: TGI [21]
2680 nM: TGI [47]
active: GI50 [2] 273 nM | GI50 [5] 275 nM | GI50 [8] 385 nM | GI50 [9] 376 nM | GI50 [11] 248 nM | GI50 [12] 293 nM | GI50 [13] 364 nM | GI50 [15] 333 nM | GI50 [16] 358 nM | GI50 [17] 338 nM | GI50 [20] 207 nM | GI50 [22] 362 nM | GI50 [25] 292 nM | GI50 [26] 386 nM | GI50 [27] 339 nM | GI50 [29] 351 nM | GI50 [31] 388 nM | GI50 [32] 424 nM | GI50 [33] 187 nM | GI50 [35] 277 nM | GI50 [37] 328 nM | GI50 [39] 293 nM | GI50 [41] 357 nM | GI50 [45] 281 nM | GI50 [46] 312 nM | GI50 [48] 414 nM | GI50 [51] 352 nM | GI50 [52] 356 nM | GI50 [54] 291 nM | GI50 [55] 402 nM | GI50 [56] 185 nM | GI50 [57] 317 nM
1920 nM: TGI [50]
5680 nM: TGI [44]
10300 nM: TGI [26]
7420 nM: TGI [8]
1330 nM: TGI [56]
11200 nM: TGI [49]
2420 nM: TGI [14]
1310 nM: TGI [27]
3040 nM: TGI [4]
10800 nM: TGI [58]
1340 nM: TGI [57]
1940 nM: TGI [48]
718 nM: TGI [20]
4460 nM: TGI [28]
1660 nM: TGI [29]
2830 nM: TGI [23]
1070 nM: TGI [2]
1620 nM: TGI [10]
876 nM: TGI [45]
1350 nM: TGI [46]
900 nM: TGI [5]
1850 nM: TGI [18]
1700 nM: TGI [54]
2520 nM: TGI [36] | TGI [43]
4830 nM: TGI [53]
1450 nM: TGI [52]
977 nM: TGI [35]
1520 nM: TGI [16]
877 nM: TGI [39]
1360 nM: TGI [13]
7430 nM: TGI [24]
1410 nM: TGI [22]
2450 nM: TGI [6]
